SMILES strings stand for the structures.

Compound `CC(C)Cc1ccc2c([N+](=O)[O-])c(O)c(O)cc2c1` came in with a melting point of 105 to 108 °C.
Regarding `OCCCc1conc1-c1ccc(F)c(Br)c1`, the melting point lay within 40 to 41 °C.
To `CC(=O)NCCSc1c(Cl)cc([N+](=O)[O-])c(C)c1[N+](=O)[O-]` belongs 152 °C; to `CC(=O)Nc1ccc(-c2ncc(NC(=O)OCc3ccccc3)c(=O)n2CC(=O)NC(Cc2ccccc2)C(=O)C(F)(F)F)cc1` (stereo unspecified), 235 to 240 °C; to `CCOC(=O)c1cnc2[nH]ncc2c1OCC`, 180 °C.
Under `Brc1cn2c(Br)cnc2c(Br)n1` stands 161 °C; under `Cc1nc(C)c(Cl)c(NCc2ccc(O)cc2)n1`, 202 °C.
Compound `COc1ccc(Cl)cc1C(=O)NCCc1ccc(-c2ccc(OC(C)(C)CO)cc2)cc1` gave a melting point of 115 °C.
To `CN1Cc2c(C#Cc3ccccc3Cl)ncn2-c2ccc(F)cc2C1=O` belongs 259 to 261 °C; to `CCOc1n[nH]cc1C(=O)NCc1ccc(Cl)cc1Cl`, 197 to 198 °C; to `COC(=O)c1ccc(-c2ccc3cc4c(cc3c2)C(C)(C)CCC4(C)C)cc1O`, 145 to 146 °C.
Under `O=S(=O)(O)NCc1ccncc1` stands 227 to 228 °C; under `CC(C)c1cc(Oc2ccc(Cl)cc2)nc(C(C)C)c1[N+](=O)[O-]`, 102 to 104 °C; under `CS(=O)c1ccc(C2=C(c3ccccc3)C(=O)OC2)cc1` (stereo unspecified), 149 to 150 °C.
`Cc1cc(COc2nn3c(-c4ccccc4F)nncc3c2-c2ccccc2F)nn1C` returned a melting point of 183 °C.
To `c1ccc(-c2cnccn2)cc1` belongs 69 to 70 °C; to `OC(COc1ccc(Cl)cc1)CSCc1ccc(Cl)cc1` (stereo unspecified), 107 to 108 °C.
Take `NCCNC(=O)Cc1ccsc1`: the melting point was 89.7 to 92.1 °C.
Under `COc1ccc(-c2nc(SC(F)(F)C(F)F)[nH]c2-c2ccncc2)cc1` stands 212 to 214 °C; under `COc1ccc(-c2nnc(O)nc2-c2ccc(OC)cc2)cc1`, 238 to 242 °C.
In turn, `Cn1cc(C2=CCN(CCCn3nnc4ccccc4c3=O)CC2)c2ccccc21` returned a melting point of 70 °C.
Under `CCCCOc1ccc2c(c1)C(N(C)S(C)(=O)=O)=CC(C)(C)O2` stands 114 to 116 °C; under `Cc1ccncc1OC1SCC(O)C(O)C1O` (stereo unspecified), 236 °C.
Take `CCOC(=O)C1=C(C)NC(N)=C(C(=O)OC(C)C)C1c1ccccc1C#N` (stereo unspecified): the melting point is 200 °C.
Compound `CCCn1nc2c(N)nc3ccccc3c2c1CC1CCOCC1` registered a melting point of 218 to 220 °C.
To `COc1ccc([C@H](Sc2ccccc2NC(C)=O)[C@@H](O)C(=O)O)cc1` belongs 173 to 175 °C; to `O=C(NC(Cc1ccccc1)C(=O)O)c1ccc(-c2ccccc2OC2OC(CO)C(O)C(O)C2O)cc1` (stereo unspecified), 116 to 119 °C.
Take `COc1cc(C)c(C(O)c2c(C(F)(F)F)cnc(Cl)c2Cl)c(OC)c1OC` (stereo unspecified): the melting point is 95 to 98 °C.
To `CCCCOc1cc(C(=O)O)n(Cc2ccc(Cl)cc2Cl)n1` belongs 154 to 155 °C; to `CS(=O)(=O)N1CCC(NC(=O)NC23CC4CC(CC(C4)C2)C3)CC1`, 228 to 229 °C; to `COCCOC(=O)Nc1cccc(C)c1COc1cccn2c(C)c(C)nc12`, 107 to 108 °C.
The compound `CCOC(=O)c1c2n(c3cc(N4CCN(Cc5oc(=O)oc5C)CC4)c(F)cc3c1=O)C(C)S2` (stereo unspecified) had a melting point of 241 to 243 °C.
Regarding `COC(CN(C)C(=O)Nc1nnc(C(C)Oc2cc(Cl)cc(Cl)c2)s1)OC` (stereo unspecified), the melting point lay in the range of 149 to 152 °C.
To `N#Cc1sc(N)c(C#N)c1Cl` belongs 259 °C; to `O=C(N[C@@H](Cc1ccc(NC(=O)c2c(Cl)cccc2Cl)cc1)C(=O)O)OCC1c2ccccc2-c2ccccc21`, 230 to 234 °C.
In turn, `CCOC(=O)C(Cc1c[nH]c2cc(Cl)cc(Cl)c12)=NO` displayed a melting point of 175 to 176 °C.
`CC(=O)OCCCOc1ccc2nc3c(cc2c1)NCN3` came in with a melting point of 301 to 303 °C.
To `CCOC1(C(Cl)(Cl)Cl)NC(=O)C(=O)N1` belongs 189 to 201 °C; to `Nc1ccccc1NC(=O)c1cc2cccc(OCCO)c2o1`, 182 to 183 °C.
In the case of `CCN(CCc1coc2c(OC)cccc12)C1COc2c(F)ccc(C(N)=O)c2C1` (stereo unspecified), the melting point was 124 to 132 °C.
To `COc1cc(C(=O)C(C#N)C#N)cc(OC)c1OC` belongs 158 to 160 °C; to `COc1ccc(CCN2CCC(C(O)c3nc4ccccc4s3)CC2)cc1` (stereo unspecified), 127 to 129 °C; to `CCOC(=O)c1cn(Cc2ccccc2)nc1OCc1cccc(OCc2nc(-c3ccco3)oc2C)c1`, 92 to 93 °C.
On to `CC(C)c1cccc(N2CCN(c3cccc(C(=O)O)c3)C2=O)c1`, for which the melting point was in the range of 189 to 190 °C.
Regarding `CN(C)c1ccc(CN(C(=O)C2CCCc3c(O)cccc32)c2ccccc2)cc1` (stereo unspecified), the melting point was 138 to 143 °C.
`Sc1nnc(-c2ccc3[nH]ncc3c2)o1`: the melting point lay in the range of 283 to 284 °C.
For the compound `Cc1ccc(Cc2cnc(NCCCCc3ncc(Br)cc3N)[nH]c2=O)cn1`, the melting point fell in the range of 196 to 197 °C.
Under `CC(NC(=O)Cc1cc(F)cc(F)c1)C(=O)C1(N)N=C(c2ccccc2)c2cc(Cl)ccc2N(C)C1=O` (stereo unspecified) stands 126 to 130 °C; under `O=C(NCCc1c2n(c3ccc(O)nc13)CCCC2)c1ccco1`, 270 °C.
Under `CN1CC(C(=O)CN2CCOCC2)CC2c3cccc4[nH]cc(c34)CC21` (stereo unspecified) stands 178 to 180 °C; under `CCCc1[nH]c(C(=O)OCC)c(CC)c1C`, 58 to 59.5 °C; under `Clc1ncnc2c1c(Nc1ccccc1)nn2Cc1ccccc1`, 135 °C.
Under `Cn1cnnc1COc1nn2c(-c3cc(Cl)on3)nnc2c2ccccc12` stands 239 to 241 °C; under `C=CCOc1ccc(C(=O)CC(C)(C#N)c2ccc(OC)cc2OC)cc1` (stereo unspecified), 77.8 to 78.5 °C; under `CC(O)c1cc(C#C[Si](C)(C)C)c(O)c(Cl)n1` (stereo unspecified), 97 to 98 °C.
In the case of `CN1CCN(c2ccc(C(=O)NCCCCCCCCCCCCO[N+](=O)[O-])cn2)CC1`, the melting point lay within 74 to 76 °C.
The compound `CCCc1cc2c(cc1O)C(C)(C)CCC2(C)C` returned a melting point of 96 to 97 °C.
In turn, `O=C(O)C(F)c1cc(F)cc(F)c1` (stereo unspecified) showed a melting point of 90 to 110 °C.
In the case of `CCCCc1nc(Cl)c(COCc2ccccc2C(=O)O)n1Cc1ccc(-c2ccccc2-c2nnn[nH]2)cc1`, the melting point is 109 to 111 °C.
Compound `CC1(C)CCC(C)(C)c2cc(C(=O)c3ccccc3C=O)ccc21` yielded a melting point of 145 °C.
Turning to `O=S(=O)(O)c1nc2cc(Cl)c(Cl)cc2[nH]1`, the melting point was 353 to 354 °C.
`CC(C)(C)OCCCC1c2ccccc2COc2cccc(O)c21` (stereo unspecified) gave a melting point of 113 to 115 °C.
Under `N#CC1CCCn2cccc21` (stereo unspecified) stands 47 to 49 °C; under `CN(C)Cc1ccc(COCC(N)=O)s1`, 86.5 to 95 °C.
For `O=C(Cl)c1cc(F)c(Cl)c([N+](=O)[O-])c1Cl`, the melting point was 35 to 37 °C.
`NC(CNCC(N)=NO)=NO`: the melting point was 135 to 136 °C.
Under `CCCCSc1c(CC(C)(C)C(=O)O)n(Cc2ccc(Cl)cc2)c2ccc(C(C)C)cc12` stands 129 to 130 °C; under `CC(Oc1ccc2nc(-c3ccccc3OC(N)=O)sc2c1)c1ccccc1C(F)(F)F` (stereo unspecified), 200 to 205 °C; under `Cn1cc(C(=O)Nc2cc(Cl)ccc2-c2cccc(Cl)c2)c(C(F)(Cl)Cl)n1`, 145 to 146 °C.
In turn, `COCCOCOc1c(C(C)(C)C)cc(C2=NC(=S)N=N2)cc1C(C)(C)C` yielded a melting point of 187 °C.
`Cc1ccc([N+](=O)[O-])cc1Nc1nccc(-c2cncnc2)n1`: the melting point was 200 to 203 °C.
To `COC1=NC(=O)N(C2CCCCC2)S(=O)(=O)N1` belongs 173 to 177 °C; to `O=C=Nc1ccc(OCC(=O)OCCOC(=O)COc2ccc(N=C=O)cc2)cc1`, 96 to 98 °C; to `CCOC(=O)C1=C(COCC#CC(N)=O)NC(C)=C(C(=O)OC)C1c1cccc(Cl)c1Cl` (stereo unspecified), 147 to 148 °C.
As to `CCCCc1nc(=O)c2cc(C3=NN(C(c4ccccc4)(c4ccccc4)c4ccccc4)[C@H]4C(=O)N(C)C(=O)[C@@H]34)ccc2[nH]1` (relative stereo), the melting point came out at 182 °C.
With `CC1=CC(=C(C#N)C#N)C=C(C)N1CCOCCCl`, the melting point lay within 148 to 149 °C.
For the compound `C#Cc1cc(C)nc(C(=O)Nc2ccn(C)n2)c1`, the melting point stood at 226 °C.
Under `CCCNC(=O)CCCCCn1c(COCC)nc2c(N)nc3ccccc3c21` stands 161 to 162 °C.
`CSc1ccc(-c2n[nH]c(=O)cc2-c2ccccc2)cc1`: the melting point was determined as 186 °C.
To `O=C(c1cc(Cl)nc(Cl)c1)n1ccnc1` belongs 148 to 151 °C.
`CCCCCCCCCCCC12OC(C)CN1CC(C)O2` (stereo unspecified) came in with a melting point greater than 130 °C.
To `Cn1cccc1CCN1C(=O)NCc2c(-c3ccccc3)cccc21` belongs 158 to 161 °C; to `Cc1nc(N2CCN(Cc3ccc(F)cc3)C2=O)sc1C#N`, 136 to 139 °C; to `COc1ccc(C(=O)Oc2ccc(C(=O)O)c(O)c2)cc1C12CC3CC(CC(C3)C1)C2`, 243 to 244 °C.
Consider `COCc1nc2c(N)nc3cc(CCC#N)ccc3c2n1CC(C)(C)O`, for which the melting point was in the range of 191 to 193 °C.
Regarding `CC1CNc2nc3c(N)nc4ccccc4c3n21` (stereo unspecified), the melting point was 265 to 273 °C.
`CN1CCN(C(=O)OC2C3=C(SCCS3)C(=O)N2c2ccc3ccc(Cl)cc3n2)CC1` (stereo unspecified) registered a melting point of 192 °C.
To `CCCNC(=O)C1(CCCc2ccccc2)c2ccccc2Sc2ccccc21` belongs 130 to 131 °C.
Take `CCC(C)(CC)c1nnc(NC(=O)c2ccccc2)s1`: the melting point was in the range of 98 to 100 °C.
To `CCOC(=O)c1c(NCc2ccccc2)nc2ccc(Br)cc2c1Cl` belongs 163 to 165 °C.
For `O=C(O)Cc1ccc2cc(OCc3ccc4ccccc4n3)ccc2c1`, the melting point was in the range of 199 to 202 °C.

As usually defined, the melting point is the temperature, or range, at which the solid turns liquid.

The values are drawn from a melting point compilation (Tetko et al.; mined from patent text by program, amines drawn as free bases though some values may be those of a salt).
